In article PMC9425443 (RSC Advances, 2022):
Structures can show the parent of a compound that is named as a salt.

Tests used:
CYP142A1 C296S [1] = target: T1, CYP142A1 C296S (Mycobacterium tuberculosis, UniProt P9WPL5, C296S); conditions: pH 7.4
CYP142A1 C123S [2] = target: T2, CYP142A1 C123S (Mycobacterium tuberculosis, UniProt P9WPL5, C123S); conditions: pH 7.4
CYP142A1 C118S [3] = target: T3, CYP142A1 C118S (Mycobacterium tuberculosis, UniProt P9WPL5, C118S); conditions: pH 7.4
CYP142A1 C316S [4] = target: T4, CYP142A1 C316S (Mycobacterium tuberculosis, UniProt P9WPL5, C316S); conditions: pH 7.4
CYP142A1 C110S [5] = target: T5, CYP142A1 C110S (Mycobacterium tuberculosis, UniProt P9WPL5, C110S); conditions: pH 7.4
CYP142A1 C281S [6] = target: T6, CYP142A1 C281S (Mycobacterium tuberculosis, UniProt P9WPL5, C281S); conditions: pH 7.4
CYP142A1 C316S [7] = target: T4, CYP142A1 C316S; assay type: biochemical
CYP142A1 C281S [8] = target: T6, CYP142A1 C281S; assay type: biochemical
CYP142A1 C110S [9] = target: T5, CYP142A1 C110S; assay type: biochemical
CYP142A1 C296S [10] = target: T1, CYP142A1 C296S; assay type: biochemical
CYP142A1 C118S [11] = target: T3, CYP142A1 C118S; assay type: biochemical
CYP142A1 C123S [12] = target: T2, CYP142A1 C123S; assay type: biochemical

Row | Compound | Kd (CYP142A1 C296S [1]) [µM] | Kd (CYP142A1 C123S [2]) [µM] | Kd (CYP142A1 C118S [3]) [µM] | Kd (CYP142A1 C316S [4]) [µM] | Kd (CYP142A1 C110S [5]) [µM] | Kd (CYP142A1 C281S [6]) [µM] | kcat (CYP142A1 C316S [7]) [s⁻¹] | kcat (CYP142A1 C281S [8]) [s⁻¹] | kcat (CYP142A1 C110S [9]) [s⁻¹] | kcat (CYP142A1 C296S [10]) [s⁻¹] | kcat (CYP142A1 C118S [11]) [s⁻¹] | kcat (CYP142A1 C123S [12]) [s⁻¹]
1 | Cholesteryl propionate | 48 ± 5.9 | 23 ± 5 | 43 ± 10 | 46 ± 6.8 | 35 ± 4.9 | 47 ± 7.6 |  |  |  |  |  | 
2 | CC(C)CCC[C@@H](C)[C@H]1CC[C@H]2[C@@H]3CC=C4C[C@@H](OS(=O)(=O)O)CC[C@]4(C)[C@H]3CC[C@]12C [Cholesteryl sulfate] | 25 ± 9.6 | 35 ± 9.3 | 33 ± 4.3 | 26 ± 8 | 37 ± 8.7 | 37 ± 8.8 |  |  |  |  |  | 
3 | CC(C)CCC[C@@H](C)[C@H]1CC[C@H]2[C@@H]3CCC4=CC(=O)CC[C@]4(C)[C@H]3CC[C@]12C [Cholest-4-en-3-one] |  |  |  |  |  |  | 0.0783 ± 0.00617 | 0.0917 ± 0.00617 | 0.11 ± 0.0113 | 0.0767 ± 0.00583 | 0.0933 ± 0.00633 | 0.085 ± 0.00617
